For one compound, Ki results are on record in article PMC4130243 (ACS Combinatorial Science, 2014).

In the assay the target is T1, Mdm4 (Homo sapiens, UniProt O15151).
T1 sequence (O15151 1-490): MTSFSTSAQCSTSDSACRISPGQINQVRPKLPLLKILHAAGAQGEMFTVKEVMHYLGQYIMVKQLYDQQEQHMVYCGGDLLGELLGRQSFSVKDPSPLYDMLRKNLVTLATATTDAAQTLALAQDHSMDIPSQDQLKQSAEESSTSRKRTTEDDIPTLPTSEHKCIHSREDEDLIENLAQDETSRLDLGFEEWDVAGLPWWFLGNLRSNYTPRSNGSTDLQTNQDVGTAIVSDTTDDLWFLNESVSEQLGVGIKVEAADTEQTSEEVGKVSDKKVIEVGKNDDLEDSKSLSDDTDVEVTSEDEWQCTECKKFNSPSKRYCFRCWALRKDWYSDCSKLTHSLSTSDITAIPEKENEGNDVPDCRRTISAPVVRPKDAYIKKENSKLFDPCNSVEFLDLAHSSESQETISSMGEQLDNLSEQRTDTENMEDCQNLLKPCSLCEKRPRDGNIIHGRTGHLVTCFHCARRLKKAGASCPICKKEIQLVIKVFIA
Briefly: fluorescence polarization assay, p53-Mdm4. Type of assay: binding. Particulars: FP, resynthesized and purified by flash chromatography.

Take `O=C(CN(Cc1ccc(Cl)cc1)C(=O)c1cc2ccccc2[nH]1)NC1CCCCC1` [Compound B1, N-(4-Chlorobenzyl)-N-(2-(cyclohexylamino)-2-oxoethyl)-1H-indole-2-carboxamide]: the inhibition constant Ki stood at 5.5 µM. This lies in the single-digit micromolar range.
